In test [1] the target is T1, CP24 (CP24-his tag) (Arabidopsis thaliana, UniProt Q9LMQ2).
T1 construct: gene LHCB6; mature thylakoid protein (transit peptide removed in vivo), C-terminal His tag kept; purified from plant thylakoids by sucrose gradient (Band 2) and Ni column; monomer
T1 sequence (Q9LMQ2 50-258): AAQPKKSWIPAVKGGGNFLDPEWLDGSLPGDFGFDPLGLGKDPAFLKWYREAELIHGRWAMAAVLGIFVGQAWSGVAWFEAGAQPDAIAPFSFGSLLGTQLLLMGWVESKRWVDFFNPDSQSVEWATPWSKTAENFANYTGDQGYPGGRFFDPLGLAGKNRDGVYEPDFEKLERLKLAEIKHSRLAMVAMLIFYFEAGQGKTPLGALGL
The test is described as follows: co-purified pigment, HPLC and absorption fit of acetone extract. Format: binding. To be noted: complex from control plants; endogenous pigment.

The target of test [2] is T1, CP24 (CP24-his tag). The description is as above. The settings on record: complex from light-stressed plants (30 min high light), pH 5.5, 4 °C; endogenous pigment; peripheral, not in internal L1/L2 sites. Format: binding.
From the text: co-purified pigment, HPLC and absorption fit of acetone extract on CP24 (CP24-his tag)

`CC1=C[C@H](O)CC(C)(C)[C@H]1/C=C/C(C)=C/C=C/C(C)=C/C=C/C=C(C)/C=C/C=C(C)/C=C/C1=C(C)C[C@@H](O)CC1(C)C` [L, lutein]: the V in test [1] is 0.89 ± 0.02 mol per monomer (normalised to 10 Chl). `CC1=C(/C=C/C(C)=C/C=C/C(C)=C/C=C/C=C(C)/C=C/C=C(C)/C=C/C2=C(C)C[C@@H](O)CC2(C)C)C(C)(C)C[C@H](O)C1` [Z, zeaxanthin]: in test [2], the Z is recorded as 0.20 ± 0.00 mol per monomer (normalised to 10 Chl). For `CC(/C=C/C=C(C)/C=C/[C@@]12O[C@]1(C)C[C@@H](O)CC2(C)C)=C\C=C\C=C(C)\C=C\C=C(C)\C=C\[C@@]12O[C@]1(C)C[C@@H](O)CC2(C)C` [V, violaxanthin], in test [1], the V is given as 0.89 ± 0.02 mol per monomer (normalised to 10 Chl).

The values are drawn from PMC4555179, “Molecular insights into Zeaxanthin-dependent quenching in higher plants” (Scientific Reports, 2015).
